Test results taken from US11286288B2, “Pharmaceutical compound” (VALLAURIX PTE. LTD., priority 2015, dated 2022).

How the values were obtained:
Assay type in all cases: cell-based
MC1R [1] = biological target: T1, MC1R (Homo sapiens, UniProt Q01726); assay: cAMP radioimmunoassay in human melanocyte culture 1753
T1 construct: human melanocyte cultures, coded 1750 and 1753, that were derived from 2 different donors expressing functional MC1R; endogenous in cells; host or cells: primary human melanocyte cultures 1750 and 1753 (two donors)
Method: Compounds 1, 2, 3 and 4 were tested in various separate tests and using 2 different human melanocyte cultures, coded 1750 and 1753, that were derived from 2 different donors expressing functional MC1R. The melanocytes were plated at a density of 0.3*10^6 cells/well. After 48 hours, the melanocytes were treated with the different compound concentrations for 1 hour. Controls without compound were included in all experiments. […] The reaction was stopped by addition of 50 μl N HCl and the supernatant in each well was used to measure cAMP using a radioimmunoassay as described by Suzuki 1996 (Suzuki I, Cone R D, Im S, Nordlund ii, Abdel-Malek Z: “Binding of melanotropic hormones to the MC1 receptor on human melanocytes stimulates proliferation and melanogenesis”. Endocrinology 137: 1627-1633, 1996). Duplicate samples from each well were assayed with triplicate wells included in each compound group. The results from different tests cannot be compared due to differences in melanocyte cultures and to different passage number. The mean of 6 cAMP measurements per group was expressed as % of the control group. Statistical analysis was carried out using ANOVA followed by Newman Kuels test. In some cases, unpaired t-test was used.

tyrosinase = assay: Tyrosinase activity (3H-tyrosine) in human melanocyte culture 1750; settings: Test 4, melanocytes 1750, six days treatment; concentration not given
Method: Compounds 1, 2, 3 and 4 were tested in various separate tests and using 2 different human melanocyte cultures, coded 1750 and 1753, that were derived from 2 different donors expressing functional MC1R. The melanocytes were plated at a density of 0.3*10^6 cells onto 60 mm dishes (triplicate dishes/group). After 48 hours, the melanocytes were treated every other day for a total of six days with different doses of each compound. Controls without compound were included in all experiments. In some experiments reference compound NDP-MSH was included. On treatment day 5, ^3H-labeled tyrosine, the substrate for tyrosinase, was added and 24 hours later, the supernatant was saved to be assayed for tyrosinase activity as described by Suzuki et al (see example 3). Duplicate samples from each were assayed, with triplicate dishes included in each group. Cell number in each dish was counted, and tyrosinase activity was expressed as dpm/10^6 cells and as % of the control. Tests results between separate tests cannot be compared due to differences in melanocyte cultures and to different passage number. Statistical analysis was carried out using ANOVA followed by Newman Kuels test.
It will be understood that this tyrosinase activation test relates to a late event after MC1R activation, compared to the earlier secondary messenger effect of the above cAMP test. As pointed out above, activity of tyrosinase requires days of treatment. Following are the results comparing the compounds in the test indicated: […]

MC1R [2] = biological target: T1, MC1R; assay: cAMP radioimmunoassay in human melanocyte culture 1750
Method: Compounds 1, 2, 3 and 4 were tested in various separate tests and using 2 different human melanocyte cultures, coded 1750 and 1753, that were derived from 2 different donors expressing functional MC1R. The melanocytes were plated at a density of 0.3*10^6 cells/well. After 48 hours, the melanocytes were treated with the different compound concentrations for 1 hour. Controls without compound were included in all experiments. In some experiments reference compound NDP-MSH was included. The reaction was stopped by addition of 50 μl N HCl and the supernatant in each well was used to measure cAMP using a radioimmunoassay as described by Suzuki 1996 (Suzuki I, Cone R D, Im S, Nordlund ii, Abdel-Malek Z: “Binding of melanotropic hormones to the MC1 receptor on human melanocytes stimulates proliferation and melanogenesis”. Endocrinology 137: 1627-1633, 1996). Duplicate samples from each well were assayed with triplicate wells included in each compound group. The results from different tests cannot be compared due to differences in melanocyte cultures and to different passage number. The mean of 6 cAMP measurements per group was expressed as % of the control group. Statistical analysis was carried out using ANOVA followed by Newman Kuels test. In some cases, unpaired t-test was used.

T1 sequence (Q01726 whole entry): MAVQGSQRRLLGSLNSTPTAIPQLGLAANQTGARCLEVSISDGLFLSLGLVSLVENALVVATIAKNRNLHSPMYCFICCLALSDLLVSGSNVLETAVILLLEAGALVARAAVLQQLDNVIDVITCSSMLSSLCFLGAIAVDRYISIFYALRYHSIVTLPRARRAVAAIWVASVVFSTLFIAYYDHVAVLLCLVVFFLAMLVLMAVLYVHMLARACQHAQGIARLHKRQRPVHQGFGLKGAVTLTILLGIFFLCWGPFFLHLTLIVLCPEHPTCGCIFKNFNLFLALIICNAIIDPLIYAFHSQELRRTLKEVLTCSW

Substance: (C2H5)3N—CH2—CO-Nle-Glu-His-D-Phe-Arg-Trp-NH2 [Compound 1]
- cAMP, highest overall efficacy value, % of the control group (MC1R [1]; Test 2, melanocytes 1753, at 10^-7 M, 1 hour treatment, p<0.05): 431%
- tyrosinase activity, efficacy, % of the control (tyrosinase): 178%

Substance: (C2H5)3N—CH2—CO-Nle-Glu-His-D-Phe-homoArg-Trp-NH2 [Compound 3]
- dose at which maximum effect on cAMP was achieved (MC1R [1]; Test 2, melanocytes 1753, p<0.05 vs control): 10^−9 M
- cAMP, highest overall efficacy value, % of the control group (MC1R [2]; Test 1, melanocytes 1750, at 10^-7 M, 1 hour treatment, p<0.05): 327%

Substance: (CH3)3N—(CH2)3—CO-Nle-Glu-His-D-Phe-Arg-Trp-NH2 [Compound 2]
- lowest dose showing cAMP efficacy statistically different from control (MC1R [1]; Test 2, melanocytes 1753, p<0.05): 10^−11 M
- dose at which maximum effect on cAMP (vs control) was achieved (MC1R [2]; Test 1, melanocytes 1750, 1 hour treatment, p<0.05 vs control): 10^−8 M
- tyrosinase activity, efficacy, % of the control (tyrosinase): 171%

Substance: (CH3)3N—(CH2)3—CO-Nle-Glu-His-D-Phe-homoArg-Trp-NH2 [Compound 4]
- cAMP, highest efficacy, % of the control group (MC1R [1]; Test 3, melanocytes 1753, at 10^-7 M, 1 hour treatment, p<0.05): 253%

Substance: NDP-MSH [reference compound]
- tyrosinase activity, efficacy, % of the control (tyrosinase): 166%
